The text below walks through data of patent US20210087206A1, “MACROCYCLIC KINASE INHIBITORS AND THEIR USE” (TURNING POINT THERAPEUTICS, INC., priority 2017, published 2021).

Common to all, as to experiment: Cell proliferation assay (CellTiter-Glo)
What all share (format): cell-based
In general terms: ATP-based viability assays read luminescence as a measure of living cells.

One assay deals with T1, BaF3 EML4-ALK (Homo sapiens, UniProt Q9UM73).
T1 construct: The EML4-ALK gene (variant 1) was synthesized at GenScript and cloned into pCDH-CMV-MCS-EF1-Puro plasmid (System Biosciences, Inc); fused on or other part: EML4 N-terminal part (variant 1: exons 1-13, with the coiled-coil that oligomerises the fusion) fused to the intracellular part of ALK, which contains the kinase domain; Q9HC35 (Echinoderm microtubule-associated protein-like 4)
T1 sequence (Q9UM73 whole entry, stated change not applied, the tested form may be a part): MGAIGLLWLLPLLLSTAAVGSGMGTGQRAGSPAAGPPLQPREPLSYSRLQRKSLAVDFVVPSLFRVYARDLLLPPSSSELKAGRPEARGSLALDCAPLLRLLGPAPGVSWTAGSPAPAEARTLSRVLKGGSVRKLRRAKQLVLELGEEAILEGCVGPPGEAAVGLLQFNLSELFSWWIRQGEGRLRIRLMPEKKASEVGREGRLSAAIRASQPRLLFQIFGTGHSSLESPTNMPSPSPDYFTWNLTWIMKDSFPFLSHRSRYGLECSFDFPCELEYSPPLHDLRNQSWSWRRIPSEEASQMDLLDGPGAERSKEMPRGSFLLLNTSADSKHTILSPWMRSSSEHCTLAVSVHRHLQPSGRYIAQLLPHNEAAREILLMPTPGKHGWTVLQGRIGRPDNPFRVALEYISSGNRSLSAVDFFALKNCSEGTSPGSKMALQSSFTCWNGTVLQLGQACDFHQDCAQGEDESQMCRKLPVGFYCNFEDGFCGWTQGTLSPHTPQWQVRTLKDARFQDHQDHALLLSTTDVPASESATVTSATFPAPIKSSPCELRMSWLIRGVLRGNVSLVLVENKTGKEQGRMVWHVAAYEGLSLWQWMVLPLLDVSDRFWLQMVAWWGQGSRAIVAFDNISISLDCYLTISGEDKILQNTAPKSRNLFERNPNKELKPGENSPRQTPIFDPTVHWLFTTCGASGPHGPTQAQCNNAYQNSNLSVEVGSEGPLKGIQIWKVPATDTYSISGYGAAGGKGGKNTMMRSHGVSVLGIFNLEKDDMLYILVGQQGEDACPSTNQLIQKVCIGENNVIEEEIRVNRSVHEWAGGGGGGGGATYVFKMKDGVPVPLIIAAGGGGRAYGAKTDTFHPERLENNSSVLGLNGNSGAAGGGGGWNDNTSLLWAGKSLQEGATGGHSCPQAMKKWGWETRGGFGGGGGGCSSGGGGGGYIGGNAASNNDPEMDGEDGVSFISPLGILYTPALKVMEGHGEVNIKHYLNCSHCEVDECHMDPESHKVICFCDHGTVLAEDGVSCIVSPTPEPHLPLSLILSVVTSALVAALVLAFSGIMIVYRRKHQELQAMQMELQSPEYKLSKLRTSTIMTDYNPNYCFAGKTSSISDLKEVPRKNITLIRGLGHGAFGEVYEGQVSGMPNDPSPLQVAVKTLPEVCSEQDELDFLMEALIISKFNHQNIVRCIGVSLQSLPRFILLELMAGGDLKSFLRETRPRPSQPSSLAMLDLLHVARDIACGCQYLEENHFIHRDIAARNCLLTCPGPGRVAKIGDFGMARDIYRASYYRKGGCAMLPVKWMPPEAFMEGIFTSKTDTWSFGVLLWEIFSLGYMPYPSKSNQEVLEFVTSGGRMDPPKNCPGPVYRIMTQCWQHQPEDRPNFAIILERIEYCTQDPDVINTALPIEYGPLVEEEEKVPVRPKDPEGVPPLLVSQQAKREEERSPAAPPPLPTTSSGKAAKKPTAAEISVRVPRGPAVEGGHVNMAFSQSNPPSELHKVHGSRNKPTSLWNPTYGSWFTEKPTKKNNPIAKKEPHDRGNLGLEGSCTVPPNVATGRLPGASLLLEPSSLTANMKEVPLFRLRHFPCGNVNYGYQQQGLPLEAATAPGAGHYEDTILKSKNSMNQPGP
To be noted: anti-cell proliferation, 72 hours. The method, then:
Cloning and Ba/F3 or NIH3T3 Stable Cell Line Creation
The EML4-ALK gene (variant 1) was synthesized at GenScript and cloned into pCDH-CMV-MCS-EF1-Puro plasmid (System Biosciences, Inc). Ba/F3-EML4-ALK wild type were generated by transducing Ba/F3 cells with lentivirus containing EML4-ALK wide type. Stable cell lines were selected by puromycin treatment, followed by IL-3 withdrawal. Briefly, 5×10^6 Ba/F3 cells were transduced with lentivirus supernatant in the presence of 8 μg/mL protamine sulfate. The transduced cells were subsequently selected with 1 μg/mL puromycin in the presence of IL3-containing medium RPMI1640, plus 10% FBS. After 10-12 days of selection, the surviving cells were further selected for IL3 independent growth.
(§1) Cell Proliferation Assays:
(§2) Two thousand cells per well were seeded in 384 well white plate for 24 hrs, and then treated with compounds for 72 hours (37° C., 5% CO2). Cell proliferation was measured using CellTiter-Glo luciferase-based ATP detection assay (Promega) following the manufactures's protocol. IC50 determinations were performed using GraphPad Prism software (GraphPad, Inc., San Diego, Calif.).

The test system of the next assay is KG-1 cell (OP2-FGFR1). The settings on record: Homo sapiens, anti-cell proliferation, 72 hours. Here is the method:
(§3) Cell Lines and Cell Culture:
(§4) Colorectal cell line KM 12 (harboring endogenous TPM3-TRKA fusion gene) was obtained from NCI. Acute myelogenous cell line KG-1 (harboring endogenous OP2-FGFR1 fusion gene) were purchased from ATCC.
as §1, §2

The test system of the next assay is KM12 (TPM3-TRKA). To be noted: Homo sapiens, anti-cell proliferation, 72 hours. The method, then:
as §3, §4, §1, §2

In the case of `C[C@@H]1COc2cn3ncc4c3nc2N(Cc2cc(F)cnc2OCCC(C)(C)NC4=O)C1` [Compound 99, (17S)-12-fluoro-6,6,17-trimethyl-5,6,7,8,17,18-hexahydro-4H,14H,16H-1,20-(metheno)[1,4]oxazepino[4,3-e]pyrazolo[3,4-h]pyrido[2,3-b][1,5,7,11]oxatriazacyclotetradecin-4-one], the IC50 (usually the concentration at which inhibition is half-maximal) is 2000 nM at BaF3 EML4-ALK, 1370 nM in the assay on KG-1 cell (OP2-FGFR1) and 63.7 nM in the assay with KM12 (TPM3-TRKA).

As to `C[C@@H]1COc2cn3ncc4c3nc2N1Cc1cc(F)cnc1OCCC1(CCC1)NC4=O` [Compound 96, (16′R)-12′-fluoro-16′-methyl-4′H,5′H,7′H,8′H,14′H,16′H,17′H-spiro[cyclobutane-1,6′-[9,18]-dioxa[1,2,5,10,15,20]hexaaza-[1,19](metheno)[1,4]oxazino-[4,3-e]pyrazolo[3,4-h]pyrido[2,3-b][1,5,7,11]oxatriazacyclotetra-decin]-4′-one], the IC50 is 349 nM against BaF3 EML4-ALK, 500 nM in the assay with KG-1 cell (OP2-FGFR1) and below 0.2 nM in the assay with KM12 (TPM3-TRKA).

As to `C[C@@H]1COc2cn3ncc4c3nc2N1Cc1cc(F)cnc1O[C@H](CO)CNC4=O` [Compound 98, (4R,12S)-8-fluoro-12-(hydroxymethyl)-4-methyl-3,4,13,14-tetrahydro-6H-18,1-(metheno)[1,4]oxazino[3,4-i]pyrazolo[4,3-f]pyrido[3,2-1][1,4,8,10]oxatriazacyclotridecin-15(12H)-one], the IC50 against BaF3 EML4-ALK is 4000 nM; in the assay with KG-1 cell (OP2-FGFR1) it was 3000 nM; with KM12 (TPM3-TRKA), 13.3 nM.

`CC[C@@H]1COc2cn3ncc4c3nc2N1Cc1cc(F)cnc1OC[C@@H](C)NC4=O` [Compound 15, (4R,13R)-4-ethyl-8-fluoro-13-methyl-3,4,13,14-tetrahydro-6H-18,1-(metheno)[1,4]oxazino[3,4-i]pyrazolo[4,3-f]pyrido[3,2-l] [1,4,8,10]oxatriazacyclotridecin-15(12H)-one]: the IC50 at BaF3 EML4-ALK was 14 nM; in the assay with KG-1 cell (OP2-FGFR1), 25.2 nM; with KM12 (TPM3-TRKA), below 0.2 nM.

Turning to `CC[C@@H]1COc2cn3ncc4c3nc2N1Cc1cc(F)cnc1OCC1(CC1)NC4=O` [Compound 72, (4′R)-4′-ethyl-8′-fluoro-3′H,4′H,6′H,12′H,14′H,15′H-spiro[cyclopropane-1,13′-[2,11]dioxa[5,10,14,17,18,19]hexaaza-[18,1](metheno)[1,4]oxazino-[3,4-i]pyrazolo[4,3-f]pyrido[3,2-l][1,4,8,10]oxatriazacyclotridecin]-15′-one], the IC50 against BaF3 EML4-ALK was 18.8 nM; in the assay on KG-1 cell (OP2-FGFR1), 3.9 nM; in the assay on KM12 (TPM3-TRKA) it was below 0.2 nM.

On to `C[C@H]1COc2cn3ncc4c3nc2N1Cc1cc(F)ccc1OCCNC4=O` [Compound 2, (4S)-8-fluoro-4-methyl-3,4,13,14-tetrahydro-6H-18,1-(metheno)[1,4]oxazino[3,4-i]pyrazolo[4,3-f][1,4,8,10]benzoxatriazacyclotridecin-15(12H)-one], for which the figures for the IC50 against BaF3 EML4-ALK, in the assay with KG-1 cell (OP2-FGFR1) and in the assay on KM12 (TPM3-TRKA) were above 10000 nM, above 10000 nM and 26.7 nM, respectively.

Regarding `C[C@@H]1COc2cn3ncc4c3nc2N1Cc1cc(F)cnc1O[C@@H](C)CNC4=O` [Compound 8, (4R,12S)-8-fluoro-4,12-dimethyl-3,4,13,14-tetrahydro-6H-18,1-(metheno)[1,4]oxazino[3,4-i]pyrazolo[4,3-f]pyrido[3,2-l][1,4,8,10]oxatriazacyclotridecin-15(12H)-one], the IC50 was 101 nM against BaF3 EML4-ALK, 77.5 nM in the assay with KG-1 cell (OP2-FGFR1) and 0.2 nM in the assay on KM12 (TPM3-TRKA).

Regarding `CC[C@@H]1COc2cn3ncc4c3nc2N1Cc1cc(F)cnc1O[C@@H](C)CNC4=O` [Compound 10, (4R,12S)-4-ethyl-8-fluoro-12-methyl-3,4,13,14-tetrahydro-6H-18,1-(metheno)[1,4]oxazino[3,4-i]pyrazolo[4,3-f]pyrido[3,2-l] [1,4,8,10]oxatriazacyclotridecin-15(12H)-one], the IC50 worked out at 71.2 nM on BaF3 EML4-ALK, 63.1 nM in the assay on KG-1 cell (OP2-FGFR1) and 0.2 nM in the assay on KM12 (TPM3-TRKA).

As for `C[C@@H]1COc2cn3ncc4c3nc2N1Cc1cc(F)cnc1O[C@H]1CCC[C@H]1NC4=O` [Compound 49, (8R,15aS,18aR)-12-fluoro-8-methyl-7,8,15a,16,17,18,18a, 19-octahydro-10H,20H-3,5-(metheno)cyclopenta[b][1,4]-oxazino[3,4-i]pyrazolo[4,3-f]-pyrido[3,2-l][1,4,8,10]-oxatriazacyclotridecin-20-one], the IC50 against BaF3 EML4-ALK was 55.1 nM; in the assay on KG-1 cell (OP2-FGFR1), 9.5 nM; with KM12 (TPM3-TRKA), below 0.2 nM.

For `COC[C@H]1COc2ncc(F)cc2CN2c3nc4c(cnn4cc3OC[C@H]2C)C(=O)N1` [Compound 92, (4R,13S)-8-fluoro-13-(methoxy-methyl)-4-methyl-3,4,13,14-tetrahydro-6H-18,1-(metheno)-[1,4]oxazino[3,4-i]pyrazolo[4,3-f]pyrido[3,2-l][1,4,8,10]oxatriaza-cyclotridecin-15(12H)-one], the IC50 against BaF3 EML4-ALK came out at 2000 nM; in the assay on KG-1 cell (OP2-FGFR1), 328 nM; with KM12 (TPM3-TRKA), 5.7 nM.

Consider `C[C@@H]1COc2ncc(F)cc2CN2c3nc4c(cnn4cc3OCC23CC3)C(=O)N1` [Compound 28, (13′R)-8′-fluoro-13′-methyl-3′H,6′H,12′H,14′H,15′H-spiro-[cyclopropane-1,4′-[2,11]dioxa-[5,10,14,17,18,19]hexaaza[18,1]-(metheno)[1,4]oxazino[3,4-i]-pyrazolo[4,3-f]pyrido[3,2-l] [1,4,8,10]oxatriazacyclotridecin]-15′-one], for which the IC50 against BaF3 EML4-ALK is 180 nM; with KG-1 cell (OP2-FGFR1), 786 nM; in the assay on KM12 (TPM3-TRKA), below 0.2 nM.

With `C[C@@H]1COc2ncc(F)cc2CN2c3nc4c(cnn4cc3OCC23CCC3)C(=O)N1` [Compound 58, (13′R)-8′-fluoro-13′-methyl-3′H,6′H,12′H,13′H,14′H,15′H-spiro[cyclobutane-1,4′-[2,11]-dioxa[5,10,14,17,18,19]hexaaza-[18,1](metheno)[1,4]oxazino-[3,4-i]pyrazolo[4,3-f]pyrido-[3,2-l][1,4,8,10]oxatriazacyclo-tridecin]-15′-one], the IC50 on BaF3 EML4-ALK is 203 nM; in the assay on KG-1 cell (OP2-FGFR1), 1620 nM; in the assay on KM12 (TPM3-TRKA) it was below 0.2 nM.

Take `C[C@@H]1COc2cn3ncc4c3nc2N1Cc1cc(F)cnc1OCC1(CC1)CNC4=O` [Compound 67, (16′R)-12′-fluoro-16′-methyl-4′H,5′H,6′H,8′H,14′H,16′H,17′H-spiro[cyclopropane-1,7′-[9,18]-dioxa[1,2,5,10,15,20]hexaaza-[1,19](metheno)[1,4]oxazino[4,3-e]pyrazolo[3,4-h]pyrido[2,3-b] [1,5,7,11]oxatriazacyclotetradecin]-4′-one]: the IC50 was 32.4 nM on BaF3 EML4-ALK, 8.8 nM with KG-1 cell (OP2-FGFR1) and below 0.2 nM with KM12 (TPM3-TRKA).

On to `C[C@@H]1COc2cn3ncc4c3nc2N1Cc1cc(F)cnc1O[C@@H]1CC[C@@H](C1)NC4=O` [Compound 86, (6S,9R,17R)-13-fluoro-17-methyl-6,7,8,9,17,18-hexahydro-15H-6,9-methano-1,20-(metheno)[1,4]-oxazino[4,3-e]pyrazolo[3,4-h]-pyrido[2,3-b][1,5,7,11]oxatriaza-cyclopentadecin-4(5H)-one], for which the IC50 at BaF3 EML4-ALK was 7.3 nM; in the assay with KG-1 cell (OP2-FGFR1), 2.7 nM; with KM12 (TPM3-TRKA) it was below 0.2 nM.

As for `C[C@@H]1COc2cn3ncc4c3nc2N1Cc1cc(F)cnc1OC[C@@H](C(F)(F)F)NC4=O` [Compound 85, (4R,13S)-8-fluoro-4-methyl-13-(trifluoromethyl)-3,4,13,14-tetrahydro-6H-18,1-(metheno)-[1,4]oxazino[3,4-i]pyrazolo[4,3-f]pyridol[3,2-l][1,4,8,10]oxatriaza-cyclotridecin-15(12H)-one], the IC50 against BaF3 EML4-ALK is 12.7 nM; in the assay with KG-1 cell (OP2-FGFR1), 17.3 nM; with KM12 (TPM3-TRKA), below 0.2 nM.

Regarding `C[C@@H]1COc2cn3ncc4c3nc2N1Cc1cc(F)cnc1O[C@H]1CC[C@H](C1)NC4=O` [Compound 87, (6R,9S,17R)-13-fluoro-17-methyl-6,7,8,9,17,18-hexahydro-15H-6,9-methano-1,20-(metheno)[1,4]-oxazino[4,3-e]pyrazolo[3,4-h]-pyrido[2,3-b][1,5,7,11]oxatriaza-cyclopentadecin-4(5H)-one], the IC50 on BaF3 EML4-ALK was 15 nM; with KG-1 cell (OP2-FGFR1), 17.5 nM; with KM12 (TPM3-TRKA), below 0.2 nM.

As to `CC[C@@H]1COc2cn3ncc4c3nc2N1Cc1cc(F)cnc1OCC1(CCC1)NC4=O` [Compound 73, (4′R)-4′-ethyl-8′-fluoro-3′H,4′H,6′H,12′H,14′H,15′H-spiro[cyclobutane-1,13’-[2,11]-dioxa[5,10,14,17,18,19]hexaaza-[18,1](metheno)[1,4]oxazino[3,4-i]pyrazolo[4,3-f]pyrido[3,2-l] [1,4,8,10]oxatriazacyclotridecin]-15′-one], the figures for the IC50 on BaF3 EML4-ALK, in the assay on KG-1 cell (OP2-FGFR1) and in the assay on KM12 (TPM3-TRKA) were 93.1 nM, 5 nM and below 0.2 nM, respectively.
